In article PMC6036174 (Frontiers in Microbiology, 2018):
Like-named read-outs stand apart in the source and are kept apart here.

Experiments:
[1] = test system: A549 lung epithelial cells; experiment: A549 cell cytotoxicity (MTT); conditions: 48 h incubation, MTT, called CC50 in methods; for IC50: read-out: Cytotoxicity IC50 A549 cells
[2] = test system: VERO (ATCC CCL-81) normal epithelial cells; experiment: VERO cell cytotoxicity (resazurin); conditions: 24 h incubation, called CC50 in methods; for IC50: read-out: Cytotoxicity IC50 VERO cells
M. tuberculosis H37Rv = conditions: cited from earlier work
[3] = test system: M. tuberculosis H37Rv (ATCC 27294); experiment: resazurin microtiter assay, MIC against M. tuberculosis H37Rv; assay type: cell-based, Mycobacterium tuberculosis; conditions: 7 days 37°C, 90% inhibition of growth
M. tuberculosis CDC1551 = experiment: broth tube MIC (visible pellet) against M. tuberculosis CDC1551; assay type: cell-based, Mycobacterium tuberculosis; conditions: for MIC100 / MIC / fold increase in potency compared to INH: M. tuberculosis CDC1551; for MIC100 / MIC: 14 days 37°C, no visible pellet; for MIC: read-out: MIC100
G. mellonella larvae = experiment: in vivo toxicity in Galleria mellonella larvae; conditions: for % Mortality: 72 h post-injection; for In vivo G. mellonella tolerance order in μmol / In vivo G. mellonella tolerance order in μmol (Normalized against no. of phens): rank; for In vivo G. mellonella tolerance order in μmol: 1st = best tolerated, from Table 2; for In vivo G. mellonella tolerance order in μmol (Normalized against no. of phens): normalized with respect to phen content
Description: G. mellonella larvae in the 6th developmental stage were used to determine the in vivo cytotoxicity of the test complexes (Kellett et al., [2011]; Desbois and Coote, [2012]; McCann et al., [2012]). Thirty healthy larvae, each weighing between 0.2 and 0.4 g and with no cuticle discolouration, were used for each experiment. Fresh solutions of the test complexes were prepared immediately prior to testing under sterile conditions. Test compounds (0.05 g) were dissolved in DMSO (1 mL) and added to sterile water (9 mL) to give a stock solution/suspension (5,000 μg/mL). Test solutions/suspensions were prepared from the corresponding stock solution using Millipore water only to dilute to the desired concentration and each compound was screened across the concentration range of 5,000–100 mg/L. Test solutions/suspensions (20 μL) were administered to the larvae by injection directly into the haemocoel through the last pro-leg. The base of the pro-leg can be opened by applying gentle pressure to the sides of the larvae and this aperture will re-seal after removal of the syringe without leaving a scar. Larvae were placed in sterile Petri dishes and incubated at 30°C for 72 h. The survival of the larvae was monitored every 24 h. Death was assessed by the lack of movement in response to stimulus together with discolouration of the cuticle. Three controls were employed in all assays. The first consisted of untouched larvae maintained at the same temperature as the test larvae. The second was larvae with the pro-leg pierced with an inoculation needle but no solution injected. The third control was larvae that were inoculated with 20 μL of sterile water.

[4] = solubility in water (descriptive); assay type: physicochemical
[5] = M. tuberculosis H37Rv, ref Hoffman et al., [2013]
[6] = M. tuberculosis H37Rv, ref Oliveira et al., [2014]
[7] = H37Rv, ref Segura et al. ([2014])
[8] = 40 μg per larvae (133.33 mg/kg)
[9] = 100 μg per larvae (333.33 mg/kg)

Compound | Cytotoxicity IC50 A549 cells [1] | Cytotoxicity IC50 VERO cells [2] | IC50 [1] | IC50 [2] | MIC (M. tuberculosis H37Rv; [5]) | MIC (M. tuberculosis H37Rv; [6]) | MIC (M. tuberculosis H37Rv; [7]) | MIC90 [3] | MIC90 ([3]; read-out: MIC90) | MIC100 (M. tuberculosis CDC1551) | MIC (M. tuberculosis CDC1551) | % Mortality (G. mellonella larvae; 10 μg per larvae (33.33 mg/kg)) | % Mortality (G. mellonella larvae; 20 μg per larvae (66.67 mg/kg)) | % Mortality (G. mellonella larvae; [8]) | % Mortality (G. mellonella larvae; [9]) | In vivo G. mellonella tolerance order in μmol (G. mellonella larvae) | In vivo G. mellonella tolerance order in μmol (Normalized against no. of phens) (G. mellonella larvae) | solubility in water [4] | fold increase in potency compared to INH (M. tuberculosis CDC1551) | fold increase in inhibitory activity against CDC1551 relative to H37Rv (M. tuberculosis CDC1551; MIC CDC1551 vs H37Rv)
O.O.[Cl-].[Cl-].[Mn+2] [MnCl2·2H2O, reference compound] | 153.4 µg/mL | 92.1 µg/mL |  |  |  |  |  |  |  |  |  |  |  |  |  |  |  |  |  | 
[Cl-].[Cl-].[Mn+2] [MnCl2·2H2O, reference compound] |  |  | 947 µM | 569 µM |  |  |  |  |  |  |  |  |  |  |  |  |  |  |  | 
O=P([O-])(O)OP(=O)([O-])O.[Co+2].c1cnc2c(c1)ccc1cccnc12.c1cnc2c(c1)ccc1cccnc12 [[Co(phen)2(H2P2O7)]] |  |  |  |  | 2.05 µM |  |  |  |  |  |  |  |  |  |  |  |  |  |  | 
O.O=P([O-])(O)OP(=O)([O-])O.[Cu+2].c1cnc2c(c1)ccc1cccnc12 [[Cu(phen)(H2O)(H2P2O7)]] |  |  |  |  | 71.53 µM |  |  |  |  |  |  |  |  |  |  |  |  |  |  | 
CNC(=S)N/N=C(\C)c1ccccn1.CNC(=S)N/N=C(\C)c1ccccn1.[Mn+2] [[Mn(atc-Me)2]] |  |  |  |  |  | 50.69 µM |  |  |  |  |  |  |  |  |  |  |  |  |  | 
C/C(=N\NC(=S)Nc1ccccc1)c1ccccn1.C/C(=N\NC(=S)Nc1ccccc1)c1ccccn1.[Mn+2] [[Mn(atc-Ph)2]] |  |  |  |  |  | 1.31 µM |  |  |  |  |  |  |  |  |  |  |  |  |  | 
NC(N)=S.NC(N)=S.O=S(=O)([O-])C(F)(F)F.O=S(=O)([O-])C(F)(F)F.[Ag+].[Ag+].c1cnc2c(c1)ccc1cccnc12.c1cnc2c(c1)ccc1cccnc12 [[{Ag(phen)(μ-tu)}2]X2 (X = CF3 SO3-), [{Ag(phen)(μ-tu)}2]X2] |  |  |  |  |  |  | 14.2 µM |  |  |  |  |  |  |  |  |  |  |  |  | 
NC(N)=S.NC(N)=S.O=[N+]([O-])[O-].O=[N+]([O-])[O-].[Ag+].[Ag+].c1cnc2c(c1)ccc1cccnc12.c1cnc2c(c1)ccc1cccnc12 [[{Ag(phen)(μ-tu)}2]X2 (X = NO3-), [{Ag(phen)(μ-tu)}2]X2] |  |  |  |  |  |  | 11.0 µM |  |  |  |  |  |  |  |  |  |  |  |  | 
O.O.O=C([O-])c1ccccc1C(=O)[O-].[Mn+2].c1cnc2c(c1)ccc1cccnc12 [compound 5, [Mn(ph)(phen)(H2O)2]] | 234.51 µg/mL | 15.6 µg/mL | 539 µM | 35.8 µM |  |  |  | 0.57 µg/mL | 1.31 µM | < 0.19 µg/mL | < 0.44 µM | 0% | 80% | 90% | 90% | 6th | 6th | water-insoluble |  | 
O.O.O.O.O.O=C([O-])c1ccccc1C(=O)[O-].[Mn+2].c1cnc2c(c1)ccc1cccnc12.c1cnc2c(c1)ccc1cccnc12 [compound 6, [Mn(ph)(phen)2(H2O)]·4H2O] | 259.34 µg/mL | 11.7 µg/mL | 387 µM | 17.5 µM |  |  |  | 1.42 µg/mL | 2.12 µM | 0.38 µg/mL | 0.57 µM | 0% | 80% | 90% | 90% | 7th | 5th | water-insoluble |  | 
O.O.O.O.O=C([O-])c1cccc(C(=O)[O-])c1.O=C([O-])c1cccc(C(=O)[O-])c1.[Mn+2].[Mn+2].c1cnc2c(c1)ccc1cccnc12.c1cnc2c(c1)ccc1cccnc12.c1cnc2c(c1)ccc1cccnc12 [compound 7, [Mn2(isoph)2(phen)3]·4H2O] | 255.87 µg/mL | 125 µg/mL | 244 µM | 119 µM |  |  |  | 1.56 µg/mL | 1.48 µM |  |  | 0% | 60% | 80% | 90% | 4th | 3rd | water-insoluble |  | 
O.O.O.O.O.O.O.O.O.O.O.O.O.O.O.O.O=C([O-])c1cccc(C(=O)[O-])c1.O=C([O-])c1cccc(C(=O)[O-])c1.[Mn+2].[Mn+2].c1cnc2c(c1)ccc1cccnc12.c1cnc2c(c1)ccc1cccnc12.c1cnc2c(c1)ccc1cccnc12.c1cnc2c(c1)ccc1cccnc12.c1cnc2c(c1)ccc1cccnc12 [compound 8, {[Mn(phen)2(H2O)2]}2(isoph)2(phen)·12H2O] | 251.76 µg/mL | 46.9 µg/mL | 155 µM | 28.8 µM |  |  |  | 3.01 µg/mL | 1.85 µM |  |  | 0% | 80% | 90% | 90% | 9th | 5th | water-insoluble | ~3 fold | 
O.O.O.O.O.O=C([O-])c1ccc(C(=O)[O-])cc1.[Mn+2].c1cnc2c(c1)ccc1cccnc12.c1cnc2c(c1)ccc1cccnc12 [compound 9, [Mn(tereph)(phen)2]·5H2O] | 251.94 µg/mL | 46.9 µg/mL | 376 µM | 70 µM |  |  |  | 3.41 µg/mL | 5.09 µM | 0.38 µg/mL | 0.57 µM | 0% | 80% | 90% | 90% | 7th | 5th | water-insoluble |  | 
[Cu2(oda)(phen)4](ClO4)2·2.76H2O·EtOH [compound 2] | 0.98 µg/mL | 11.7 µg/mL |  | 8.94 µM |  |  |  | 16.60 µg/mL | 12.68 µM | 1.50 µg/mL | 1.15 µM | 0% | 50% | 90% | 90% | 3rd | 2nd | water-soluble |  | 
[Mn2(oda)(phen)4(H2O)2][Mn2(oda)(phen)4(oda)2]·4H2O [compound 1] | > 512 µg/mL | 375 µg/mL | > 208 µM | 153 µM |  |  |  | 1.15 µg/mL | 0.47 µM |  |  | 0% | 40% | 90% | 90% | 1st | 1st | water-soluble | ~3 fold | 3 fold
{[Cu(3,6,9-tdda)(phen)2]·3H2O·EtOH}n [compound 4] | 1.06 µg/mL | 5.85 µg/mL | 1.42 µM | 7.86 µM |  |  |  | 10.03 µg/mL | 13.48 µM | 0.75 µg/mL | 1.01 µM | 0% | 80% | 90% | 90% | 8th | 6th | water-soluble |  | 
{[Mn(3,6,9-tdda)(phen)2]·3H2O·EtOH}n [compound 3] | 261.67 µg/mL | 62.5 µg/mL | 356 µM | 85 µM |  |  |  | 0.56 µg/mL | 0.76 µM | 0.75 µg/mL | 1.02 µM | 0% | 50% | 80% | 90% | 2nd | 2nd | water-soluble |  | 
